Activity calls are given as the source filed them. The rule behind the calls is not given here.
Experiments:
Mus musculus [1] = experiment: Toxicity in ICR-SCID mouse heart assessed as […] level at 100 mg/kg administered 3 times per week for 4 weeks measured after 24 hrs of last dose relative to untreated control; format: organism-based; design: dose 100 mg/kg; conditions: in vivo
Mus musculus [2] = experiment: Toxicity in ICR-SCID mouse heart assessed as cholesterol level at 100 mg/kg administered 3 times per week for 4 weeks measured after 24 hrs of last dose relative to untreated control; format: organism-based; design: dose 100 mg/kg; conditions: in vivo
PC-3 = experiment: Growth inhibition of human PC3 cells assessed as ATP level after 4 days; format: functional, cell-based
NSCLC = experiment: Growth inhibition of human NSCLC cells assessed as ATP level after 4 days; format: functional, cell-based
[3] = Drug level in tumor of human BT474 cells xenografted in ICR-SCID mouse at 100 mg/kg, ip administered after 3 weeks tumor implantation measured after 6 hrs; format: ADME, organism-based, Neoplasm, BT-474; design: dose 100 mg/kg, route intraperitoneal; conditions: tumor (human BT474 xenograft), read-out: Drug uptake
[4] = Drug level in tumor of human BT474 cells xenografted in ICR-SCID mouse at 100 mg/kg, ip administered after 3 weeks tumor implantation measured after 12 hrs; format: ADME, organism-based, Neoplasm, BT-474; design: dose 100 mg/kg, route intraperitoneal; conditions: tumor (human BT474 xenograft), read-out: Drug uptake
[5] = Drug level in tumor of human BT474 cells xenografted in ICR-SCID mouse at 150 mg/kg, ip administered after 3 weeks tumor implantation measured after 6 hrs; format: ADME, organism-based, Neoplasm, BT-474; design: dose 150 mg/kg, route intraperitoneal; conditions: tumor (human BT474 xenograft), read-out: Drug uptake
[6] = Growth inhibition of human MDA231 cells assessed as ATP level after 4 days; format: functional; conditions: MDA-MB-231, 96 h
NCI-N87 = experiment: Growth inhibition of human NCI-N87 cells assessed as ATP level after 4 days; format: functional; conditions: NCI-N87, 96 h
MV4-11 = experiment: Growth inhibition of human MV4-11 cells assessed as ATP level after 4 days; format: functional; conditions: MV4-11, 96 h
[7] = Growth inhibition of human A172 cells assessed as ATP level after 4 days; format: functional; conditions: A 172, 96 h
[8] = Solubility in water; format: physicochemical; conditions: buffer
HCC827 [9] = experiment: Induction of mutant Met degradation in human tarceva and iressa-resistant HCC827 cells at 20 to 500 nM by Western blotting; format: functional, cell-based
HCC827 [10] = experiment: Induction of mutant p-Akt degradation in human tarceva and iressa-resistant HCC827 cells at 20 to 500 nM by Western blotting; format: functional, cell-based
HCC827 [11] = experiment: Induction of mutant Cyclin D degradation in human tarceva and iressa-resistant HCC827 cells at 20 to 500 nM by Western blotting; format: functional, cell-based
NCI-H1975 [12] = experiment: Induction of mutant c-Raf degradation in human tarceva and iressa-resistant NCI-H1975 cells at 20 to 500 nM by Western blotting; format: functional, cell-based
NCI-H1975 [13] = experiment: Induction of mutant Cyclin D degradation in human tarceva and iressa-resistant NCI-H1975 cells at 20 to 500 nM by Western blotting; format: functional, cell-based
[14] = Bioavailability in […] dosed mouse; format: ADME, organism-based; conditions: in vivo
[15] = Drug level in tumor of human BT474 cells xenografted in ICR-SCID mouse at 200 mg/kg, ip administered after 3 weeks tumor implantation measured after 6 hrs; format: ADME, organism-based, Neoplasm, BT-474; design: dose 200 mg/kg, route intraperitoneal; conditions: tumor (human BT474 xenograft), read-out: Drug uptake
[16] = Drug level in tumor of human BT474 cells xenografted in ICR-SCID mouse at 200 mg/kg, ip administered after 3 weeks tumor implantation measured after 24 hrs; format: ADME, organism-based, Neoplasm, BT-474; design: dose 200 mg/kg, route intraperitoneal; conditions: tumor (human BT474 xenograft), read-out: Drug uptake
[17] = Drug level in tumor of human BT474 cells xenografted in ICR-SCID mouse at 200 mg/kg, ip administered after 3 weeks tumor implantation measured after 48 hrs; format: ADME, organism-based, Neoplasm, BT-474; design: dose 200 mg/kg, route intraperitoneal; conditions: tumor (human BT474 xenograft), read-out: Drug uptake
BT-474 [18] = experiment: Induction of c-Raf degradation in human BT474 cells xenografted in ICR-SCID mouse at 100 mg/kg, ip administered after 3 weeks tumor implantation after 6 to 48 hrs by Western blotting; format: functional, organism-based; design: dose 100 mg/kg
BT-474 [19] = experiment: Induction of Cyclin D degradation in human BT474 cells xenografted in ICR-SCID mouse at 100 mg/kg, ip administered after 3 weeks tumor implantation after 6 to 48 hrs by Western blotting; format: functional, organism-based; design: dose 100 mg/kg
BT-474 [20] = experiment: Induction of Cdk4 degradation in human BT474 cells xenografted in ICR-SCID mouse at 100 mg/kg, ip administered after 3 weeks tumor implantation after 6 to 48 hrs by Western blotting; format: functional, organism-based; design: dose 100 mg/kg
Mus musculus [21] = experiment: Hepatotoxicity in ICR-SCID mouse liver assessed as aspartate aminotransferase level at 100 mg/kg administered 3 times per week for 4 weeks measured after 24 hrs of last dose relative to untreated control; format: toxicity, organism-based; design: dose 100 mg/kg; conditions: in vivo
Mus musculus [22] = experiment: Hepatotoxicity in ICR-SCID mouse liver assessed as aspartate aminotransferase level at 150 mg/kg administered 3 times per week for 4 weeks measured after 24 hrs of last dose relative to untreated control; format: toxicity, organism-based; design: dose 150 mg/kg; conditions: in vivo
Mus musculus [23] = experiment: Toxicity in ICR-SCID mouse kidney assessed as creatinine level at 150 mg/kg administered 3 times per week for 4 weeks measured after 24 hrs of last dose relative to untreated control; format: organism-based; design: dose 150 mg/kg; conditions: in vivo

concentration at 6 h [3]: 5490 ng/g | concentration at 12 h [4]: 5250 ng/g | concentration at 6 h [5]: 6180 ng/g | GI50 (MV4-11): 3 nM | solubility [8]: Insoluble | bioavailability [14]: 60.5% | concentration at 6 h [15]: 6520 ng/g | concentration at 24 h [16]: 10200 ng/g | concentration at 48 h [17]: 4020 ng/g
SMILES: O=C1OCC/C=C/CC/C=C/C(=N/OCC(=O)N2CCCCC2)Cc2c(Cl)c(O)cc(O)c21 [POCHOXIME A]
Activity (Mus musculus [1]): 15.2 U/L | Activity (Mus musculus [2]): 168 mg/dL | Activity (PC-3): Active | Activity (NSCLC): Active | GI50 [6]: 7 nM | GI50 (NCI-N87): 4 nM | GI50 [7]: 42 nM | Activity (HCC827 [9]): Active | Activity (HCC827 [10]): Active | Activity (HCC827 [11]): Active | Activity (NCI-H1975 [12]): Active | Activity (NCI-H1975 [13]): Active | Activity (BT-474 [18]): Active | Activity (BT-474 [19]): Active | Activity (BT-474 [20]): Active | Activity (Mus musculus [21]): 88.7 U/L | Activity (Mus musculus [22]): 191 U/L | Activity (Mus musculus [23]): 0.2 mg/dL

From ChEMBL document CHEMBL1153018, “Synthesis of pochoxime prodrugs as potent HSP90 inhibitors” (Bioorg Med Chem Lett, 2009)
